US11963997B2, “Anti-tumor polypeptide Bax-BH3, fluorescent polymeric nanomicelle, preparation method and use thereof” (Jilin University, priority 2021, dated 2024)
Residues, ends and D or L forms follow the SMILES beside them. No end group written: not given here. *: point of attachment. Cbz = O=C(OCc1ccccc1)*; CH2F = FC*

Columns and labels:
[1] = system: HEK-293T cells; experiment: Fluorescence microscopy of HEK-293T cells after transfection (Hoechst 33342 nuclear staining); type: cell-based; settings: 1 μg plasmid per well, 4 h transfection then 12 h culture, Z-VAD-FMK 20 μM added 2 h before transfection
Protocol: (§1) The cultured HEK-293T cells (purchased from ATCC) were digested and counted with a hemocytometer, the resulting cells were diluted with a medium containing 10% fetal bovine serum (FBS) by volume, and added to a six-well plate, with 2×10^5 cells per well. The six-well plate was incubated in a 5% CO2 incubator at 37° C. until the cells grew to 50% to 70% confluence for transfection. […]
(§2) During the transfection, a mass-to-volume ratio (m:v) of the plasmid and the transfection reagent was 1:2, and 1 μg of the plasmid was added to each well of the six-well plate, and 2 μl of the transfection reagent was added correspondingly; the plasmid and transfection reagent were diluted with a serum-free medium in advance, shaken well, and allowed to stand at 25° C. for 5 min separately; the transfection reagent was pipetted to the serum-free medium containing the plasmid, flicked to mix well, and allowed to stand at 25° C. for 20 min to obtain a complex. […] Z-VAD-FMK (Selleck) was added to the six-well plate at a concentration of 20 μM 2 h before the transfection, nuclei were colored with a Hoechst 33342 dye, and condition of the cells after transfection was observed under a fluorescence microscope.

[2] = system: HEK-293T cells; experiment: Annexin V-FITC flow cytometry-based apoptosis assay of transfected cells; type: cell-based
Protocol: as §1
as §2, with “microscope. […]” for “microscope.”

Row | Compound | condition of the cells after transfection observed under a fluorescence microscope [1] | survival rate of cells (FIG. 4) ([2]; HEK-293T cells after transfection, in words) | effect on apoptosis ([2]; Bax-BH3 polypeptide expressed by the recombinant vector transfected into HEK-293T cells)
1 | COC(=O)C[C@H](NC(=O)[C@H](C)NC(=O)[C@@H](NC(=O)OCc1ccccc1)C(C)C)C(=O)CF [Z-VAD-FMK] (Cbz-Val-Ala-Asp(OMe)-CH2F) | significantly inhibit apoptosis | significantly improved | 
2 | DASTKKLSECLRRIGDELDS |  |  | promoting apoptosis
